The conditions of this series: drug substance.

Turning to `C[C@]12CC[C@H]3[C@@H](CCC4=CC(=O)CC[C@@]43C)[C@@H]1CC[C@@H]2O` [Testosterone, 17β-Hydroxyandrost-4-en-3-one], the Stability in air result is “powder. It is odourless, and stable in air”.

For the origin of these results see patent publication US9757388B2 (Acerus Pharmaceuticals SRL, priority 2011, dated 2017).
